Ends that are not written are not given here.
Columns and labels:
[1] = system: stage IV metastatic melanoma; assay: Phase 2 multi-center open-label study: tumor response (CR, PR, RR); type: in vivo, human; details: regimen with TA1 but without IFN alpha vs both IFN alpha and TA1
Text: (§1) This phase 2 multi-center, open-label study enrolled 488 patients with stage IV metastatic melanoma at 64 European clinical sites. The trial was designed to evaluate different dose levels of Thymosin alpha 1 (TA1). This study was in combination with DTIC chemotherapy, with and without low-dose interferon alpha, as a first-line treatment for malignant melanoma. Most patients enrolled in the trial had liver and other metastases and the remaining patients had lung metastases and skin or lymph node metastases.
(§2) A total of 488 patients (pts) (63% M1; 24% M1b; 13% M1a) were randomised into the study from 64 European sites. Demographic and baseline characteristics are shown in table 1 wherein DIT=DTIC/IFN alpha,/TA1, DT=DTIC/TA1, T=TA1, DI=DTIC/IFN alpha and ECOG PS is a patient's health performance status (PS) according to the Eastern Cooperative Oncology Group (ECOG).

Gp100 = assay: Melanoma antigen expression in B-16 cells by confocal microscopy; type: cell-based; details: B-16 mouse melanoma cells, 24 h treatment, 50 μg/ml; control: +
Text: (§3) Thymosin alpha 1 was able to up-regulate melanoma-specific antigens melan-A and MART-1 on the cell surface of mouse B-16 melanoma cells.

Melan-A/MART-1 = assay: as above; type: cell-based, mouse
Text: as §3

[2] = Phase 2 multi-center open-label study: adverse events and tolerability; parameters: species or system human; details: in vivo
Text: as §1, §2

[3] = system: stage IV metastatic melanoma; assay: Phase 2 multi-center open-label study: overall survival (OS); type: in vivo, human; details: regimen with TA1 but without IFN alpha vs both IFN alpha and TA1
Text: as §1, §2

[4] = system: stage IV metastatic melanoma; assay: Phase 2 multi-center open-label study: progression free survival (PFS); type: in vivo, human; details: regimen with TA1 but without IFN alpha vs both IFN alpha and TA1
Text: as §1, §2

thymosin alpha 1 (Ac-SDAAVDTSSEITTKDLKEKKEVVEEAEN; UniProt P06454 2-29, looked up)
Overall tumor response (in words) [1]: higher overall tumor response | Gp100 expression (Gp100): ± ↓ | Melan-A/MART-1 expression (Melan-A/MART-1; B-16 mouse melanoma cells, 24 h treatment, 50 μg/ml, control: +): ++ ↑ | Melanoma-specific antigens melan-A and MART-1 on the cell surface (in words) (Melan-A/MART-1; mouse B-16 melanoma cells): up-regulate | Serious adverse events attributed to the drug (in words) [2]: no serious adverse events attributed to the drug | Median survival rate (in words) [3]: higher median survival rate | Progression-free survival (in words) [4]: higher progression-free survival

From patent publication US20100016211A1, “Treatment of Melanoma With Alpha Thymosin Peptides” (SciClone Pharmaceuticals, Inc., priority 2007, published 2010)
